Test: Phase 1 single-ascending dose (Part 1): safety and tolerability in healthy adults
Assay type: in vivo, human
Protocol: This ongoing trial is a Phase 1 randomized, double-blind, placebo-controlled study in male and female healthy adult volunteers aged 18-55 years. All volunteers provided written, informed consent.
All volunteers were followed up for 4 weeks and safety and tolerability were continuously assessed throughout the study. All adverse events (AEs) were recorded from the time of consent to the completion visit and were graded using the DAIDS toxicity grading scale. Volunteers also underwent physical examinations, electrocardiograms, vital sign checks and clinical laboratory parameters (chemistry, haematology, urinalysis).

[1] = 1.8 mg and 1.25 mg fasted pooled

SMILES: CCCCOc1nc(N)c2[nH]cc(Cc3ccc(CN4CCCC4)cc3)c2n1 [Compound 4]
- time within which fever and flu-like symptoms resolved (1.25 mg and 1.8 mg fasted): 24 to 48 h
- time within which low lymphocyte count resolved (1.25 mg fasted and 1.8 mg): ≤ 72 h
- subjects with treatment-related headache overall [1]: 5 subjects
- subjects with treatment-related pyrexia overall [1]: 5 subjects
- subjects with treatment-related pyrexia grade 1 (Part 1, all single doses): 3 subjects
- subjects with treatment-related pyrexia grade 2 (Part 1, all single doses): 2 subjects
- deaths, other SAEs, or AEs of at least grade 3 (Part 1 and Part 2): no deaths, other SAEs, or AEs of at least grade 3 occurred
- serious AEs or dose-limiting toxicities (all tested single doses): no serious AEs or dose-limiting toxicities
- Any AE (treatment-emergent) (single dose 0.2 mg fasted): 4 (67) n (%)
- Back pain Grade 1 (treatment-emergent AE) (single dose 0.2 mg fasted): 0 n (%)
- Chills Grade 1 (treatment-emergent AE) (single dose 0.2 mg fasted): 0 n (%)
- Contact dermatitis Grade 1 (treatment-emergent AE) (single dose 0.2 mg fasted): 2 (33) n (%)
- Dizziness Grade 1 (treatment-emergent AE) (single dose 0.2 mg fasted): 1 (17) n (%)
- ECG actual value: Heart rate (bpm) Low (single dose 0.2 mg fasted): 1 (16.7%) n (%)
- ECG actual value: QRS (ms) High (single dose 0.2 mg fasted): 0 n (%)
- ECG actual value: QTcB (ms) ]450; 480] (single dose 0.2 mg fasted): 0 n (%)
- ECG actual value: QTcF (ms) ]450; 480] (single dose 0.2 mg fasted): 0 n (%)
- ECG change from reference: QTcB (ms) [30; 60] (single dose 0.2 mg fasted): 0 n (%)
- ECG change from reference: QTcF (ms) [30; 60] (single dose 0.2 mg fasted): 0 n (%)
- Headache Grade 1 (treatment-emergent AE) (single dose 0.2 mg fasted): 1 (17) n (%)
- Headache Grade 2 (treatment-emergent AE) (single dose 0.2 mg fasted): 0 n (%)
- Hypertension Grade 1 (treatment-emergent AE) (single dose 0.2 mg fasted): 0 n (%)
- Hypertension Grade 2 (treatment-emergent AE) (single dose 0.2 mg fasted): 0 n (%)
- Myalgia Grade 1 (treatment-emergent AE) (single dose 0.2 mg fasted): 0 n (%)
- Oropharyngeal pain Grade 1 (treatment-emergent AE) (single dose 0.2 mg fasted): 0 n (%)
- Pyrexia Grade 1 (treatment-emergent AE) (single dose 0.2 mg fasted): 0 n (%)
- Pyrexia Grade 2 (treatment-emergent AE) (single dose 0.2 mg fasted): 0 n (%)
- URTI Grade 1 (treatment-emergent AE) (single dose 0.2 mg fasted): 0 n (%)
- lab toxicity: Amylase (U/L), upwards, Grade 1 (single dose 0.2 mg fasted): 0 n (%)
- lab toxicity: Amylase (U/L), upwards, Grade 2 (single dose 0.2 mg fasted): 1 (16.7%) n (%)
- lab toxicity: Cholesterol (mmol/L), upwards, Grade 1 (single dose 0.2 mg fasted): 0 n (%)
- lab toxicity: Cholesterol (mmol/L), upwards, Grade 2 (single dose 0.2 mg fasted): 1 (16.7%) n (%)
- lab toxicity: Creatine kinase (U/L), upwards, Grade 1 (single dose 0.2 mg fasted): 3 (50.0%) n (%)
- lab toxicity: Creatine kinase (U/L), upwards, Grade 2 (single dose 0.2 mg fasted): 0 n (%)
- lab toxicity: Creatine kinase (U/L), upwards, Grade 4 (single dose 0.2 mg fasted): 0 n (%)
- lab toxicity: Glucose (mmol/L), upwards, Grade 1 (single dose 0.2 mg fasted): 1 (16.7%) n (%)
- lab toxicity: Glucose (mmol/L), upwards, Grade 2 (single dose 0.2 mg fasted): 0 n (%)
- lab toxicity: LDL cholesterol (mmol/L, calculated), upwards, Grade 1 (single dose 0.2 mg fasted): 1 (16.7%) n (%)
- lab toxicity: LDL cholesterol (mmol/L, calculated), upwards, Grade 2 (single dose 0.2 mg fasted): 1 (16.7%) n (%)
- lab toxicity: LDL cholesterol (mmol/L, calculated), upwards, Grade 3 (single dose 0.2 mg fasted): 0 n (%)
- lab toxicity: Lymphocytes (giga/L), downwards, Grade 2 (single dose 0.2 mg fasted): 0 n (%)
- lab toxicity: Lymphocytes (giga/L), downwards, Grade 4 (single dose 0.2 mg fasted): 0 n (%)
- lab toxicity: Neutrophils, segmented (giga/L), downwards, Grade 1 (single dose 0.2 mg fasted): 0 n (%)
- lab toxicity: Neutrophils, segmented (giga/L), downwards, Grade 2 (single dose 0.2 mg fasted): 0 n (%)
- lab toxicity: Platelets (giga/L), downwards, Grade 1 (single dose 0.2 mg fasted): 0 n (%)
- lab toxicity: Sodium (mmol/L), upwards, Grade 1 (single dose 0.2 mg fasted): 0 n (%)
- lab toxicity: Sodium (mmol/L), upwards, Grade 2 (single dose 0.2 mg fasted): 0 n (%)
- lab toxicity: Triglycerides (mmol/L), upwards, Grade 1 (single dose 0.2 mg fasted): 1 (16.7%) n (%)
- lab toxicity: Triglycerides (mmol/L), upwards, Grade 2 (single dose 0.2 mg fasted): 2 (33.3%) n (%)
- lab toxicity: Triglycerides (mmol/L), upwards, Grade 3 (single dose 0.2 mg fasted): 0 n (%)
- lab toxicity: Urate (μmol/L), upwards, Grade 1 (single dose 0.2 mg fasted): 2 (33.3%) n (%)
- subjects with at least one AE for which any study drug or study was permanently stopped (single dose 0.2 mg fasted): 0 n (%)
- subjects with at least one AE for which any study drug or study was temporarily stopped (single dose 0.2 mg fasted): 0 n (%)
- subjects with at least one AE possibly related to any study drug (single dose 0.2 mg fasted): 0 n (%)
- subjects with at least one AE possibly, probably or very likely related to any study drug (single dose 0.2 mg fasted): 0 n (%)
- subjects with at least one AE probably related to any study drug (single dose 0.2 mg fasted): 0 n (%)
- subjects with at least one AE very likely related to any study drug (single dose 0.2 mg fasted): 0 n (%)
- subjects with at least one SAE (single dose 0.2 mg fasted): 0 n (%)
- subjects with at least one fatal AE (single dose 0.2 mg fasted): 0 n (%)
- subjects with at least one grade 1 AE (single dose 0.2 mg fasted): 4 (66.7%) n (%)
- subjects with at least one grade 2 AE (single dose 0.2 mg fasted): 0 n (%)
- subjects with at least one grade 3 or 4 AE (single dose 0.2 mg fasted): 0 n (%)
- subjects with low hematocrit levels (non-graded) (single dose 0.2 mg fasted): 5 (83.3%) n (%)
- treatment-related AE: Any AE (single dose 0.2 mg fasted): 0 n (%)
- treatment-related AE: Chills (single dose 0.2 mg fasted): 0 n (%)
- treatment-related AE: Dizziness (single dose 0.2 mg fasted): 0 n (%)
- treatment-related AE: General disorders and administration site conditions (single dose 0.2 mg fasted): 0 n (%)
- treatment-related AE: Headache (single dose 0.2 mg fasted): 0 n (%)
- treatment-related AE: Hypertension (single dose 0.2 mg fasted): 0 n (%)
- treatment-related AE: Myalgia (single dose 0.2 mg fasted): 0 n (%)
- treatment-related AE: Nervous system disorders (single dose 0.2 mg fasted): 0 n (%)
- treatment-related AE: Oropharyngeal pain (single dose 0.2 mg fasted): 0 n (%)
- treatment-related AE: Pyrexia (single dose 0.2 mg fasted): 0 n (%)
- treatment-related AE: Respiratory, thoracic and mediastinal disorders (single dose 0.2 mg fasted): 0 n (%)
- treatment-related AE: Vascular disorder (single dose 0.2 mg fasted): 0 n (%)
- vital signs: Respiratory rate (brpm) Grade 1 (single dose 0.2 mg fasted): 3 (50.0%) n (%)
- vital signs: Respiratory rate (brpm) Grade 2 (single dose 0.2 mg fasted): 0 n (%)
- vital signs: SaO2 (%) 90% to <95% (single dose 0.2 mg fasted): 1 (16.7%) n (%)
- vital signs: SaO2 (%) 95% to <98% (single dose 0.2 mg fasted): 4 (66.7%) n (%)
- vital signs: Standing DBP (mmHg) Grade 1 (single dose 0.2 mg fasted): 2 (33.3%) n (%)
- vital signs: Standing DBP (mmHg) Grade 2 (single dose 0.2 mg fasted): 0 n (%)
- vital signs: Standing DBP (mmHg) Grade 3 (single dose 0.2 mg fasted): 0 n (%)
- vital signs: Standing DBP (mmHg) Low (single dose 0.2 mg fasted): 0 n (%)
- vital signs: Standing SBP (mmHg) Grade 1 (single dose 0.2 mg fasted): 3 (50.0%) n (%)
- vital signs: Standing SBP (mmHg) Low (single dose 0.2 mg fasted): 0 n (%)
- vital signs: Standing pulse (bpm) High (single dose 0.2 mg fasted): 3 (50.0%) n (%)
- vital signs: Standing pulse (bpm) Low (single dose 0.2 mg fasted): 0 n (%)
- vital signs: Supine DBP (mmHg) Grade 1 (single dose 0.2 mg fasted): 0 n (%)
- vital signs: Supine DBP (mmHg) Low (single dose 0.2 mg fasted): 0 n (%)
- vital signs: Supine SBP (mmHg) Grade 1 (single dose 0.2 mg fasted): 0 n (%)
- vital signs: Supine SBP (mmHg) Grade 2 (single dose 0.2 mg fasted): 0 n (%)
- vital signs: Supine SBP (mmHg) Low (single dose 0.2 mg fasted): 1 (16.7%) n (%)
- vital signs: Supine pulse (bpm) Low (single dose 0.2 mg fasted): 2 (33.3%) n (%)
- ↑ AST Grade 3 (laboratory abnormality) (single dose 0.2 mg fasted): 0 n (%)
- ↑ Amylase Grade 2 (laboratory abnormality) (single dose 0.2 mg fasted): 1 (17) n (%)
- ↑ Cholesterol Grade 2 (laboratory abnormality) (single dose 0.2 mg fasted): 1 (17) n (%)
- ↑ Creatine kinase Grade 2 (laboratory abnormality) (single dose 0.2 mg fasted): 0 n (%)
- ↑ Creatine kinase Grade 4 (laboratory abnormality) (single dose 0.2 mg fasted): 0 n (%)
- ↑ Glucose Grade 2 (laboratory abnormality) (single dose 0.2 mg fasted): 0 n (%)
- ↑ LDL cholesterol Grade 2 (laboratory abnormality) (single dose 0.2 mg fasted): 1 (17) n (%)
- ↑ LDL cholesterol Grade 3 (laboratory abnormality) (single dose 0.2 mg fasted): 0 n (%)
- ↑ Lipase Grade 2 (laboratory abnormality) (single dose 0.2 mg fasted): 0 n (%)
- ↑ Pancreatic amylase Grade 2 (laboratory abnormality) (single dose 0.2 mg fasted): 0 n (%)
- ↑ Potassium Grade 2 (laboratory abnormality) (single dose 0.2 mg fasted): 0 n (%)
- ↑ Sodium Grade 2 (laboratory abnormality) (single dose 0.2 mg fasted): 0 n (%)
- ↑ Triglycerides Grade 2 (laboratory abnormality) (single dose 0.2 mg fasted): 2 (33) n (%)
- ↑ Triglycerides Grade 3 (laboratory abnormality) (single dose 0.2 mg fasted): 0 n (%)
- ↓ Bicarbonate Grade 2 (laboratory abnormality) (single dose 0.2 mg fasted): 1 (17) n (%)
- ↓ GFR Grade 2 (laboratory abnormality) (single dose 0.2 mg fasted): 0 n (%)
- ↓ Lymphocytes Grade 2 (laboratory abnormality) (single dose 0.2 mg fasted): 0 n (%)
- ↓ Lymphocytes Grade 4 (laboratory abnormality) (single dose 0.2 mg fasted): 0 n (%)
- ↓ Neutrophils Grade 2 (laboratory abnormality) (single dose 0.2 mg fasted): 0 n (%)
- ↓ Phosphate Grade 2 (laboratory abnormality) (single dose 0.2 mg fasted): 0 n (%)
- Any AE (treatment-emergent) (single dose 0.6 mg fasted): 3 (50) n (%)
- Back pain Grade 1 (treatment-emergent AE) (single dose 0.6 mg fasted): 0 n (%)
- Chills Grade 1 (treatment-emergent AE) (single dose 0.6 mg fasted): 0 n (%)
- Contact dermatitis Grade 1 (treatment-emergent AE) (single dose 0.6 mg fasted): 0 n (%)
- Dizziness Grade 1 (treatment-emergent AE) (single dose 0.6 mg fasted): 0 n (%)
- ECG actual value: Heart rate (bpm) Low (single dose 0.6 mg fasted): 0 n (%)
- ECG actual value: QRS (ms) High (single dose 0.6 mg fasted): 0 n (%)
- ECG actual value: QTcB (ms) ]450; 480] (single dose 0.6 mg fasted): 0 n (%)
- ECG actual value: QTcF (ms) ]450; 480] (single dose 0.6 mg fasted): 0 n (%)
- ECG change from reference: QTcB (ms) [30; 60] (single dose 0.6 mg fasted): 3 (50.0%) n (%)
- ECG change from reference: QTcF (ms) [30; 60] (single dose 0.6 mg fasted): 0 n (%)
- Headache Grade 1 (treatment-emergent AE) (single dose 0.6 mg fasted): 0 n (%)
- Headache Grade 2 (treatment-emergent AE) (single dose 0.6 mg fasted): 0 n (%)
- Hypertension Grade 1 (treatment-emergent AE) (single dose 0.6 mg fasted): 0 n (%)
- Hypertension Grade 2 (treatment-emergent AE) (single dose 0.6 mg fasted): 0 n (%)
- Myalgia Grade 1 (treatment-emergent AE) (single dose 0.6 mg fasted): 0 n (%)
- Oropharyngeal pain Grade 1 (treatment-emergent AE) (single dose 0.6 mg fasted): 1 (17) n (%)
- Pyrexia Grade 1 (treatment-emergent AE) (single dose 0.6 mg fasted): 0 n (%)
- Pyrexia Grade 2 (treatment-emergent AE) (single dose 0.6 mg fasted): 0 n (%)
- URTI Grade 1 (treatment-emergent AE) (single dose 0.6 mg fasted): 0 n (%)
- lab toxicity: Amylase (U/L), upwards, Grade 1 (single dose 0.6 mg fasted): 0 n (%)
- lab toxicity: Amylase (U/L), upwards, Grade 2 (single dose 0.6 mg fasted): 0 n (%)
- lab toxicity: Cholesterol (mmol/L), upwards, Grade 1 (single dose 0.6 mg fasted): 2 (33.3%) n (%)

Source: patent US12263172B2, “Toll-like receptor agonists for use in the treatment of hepatitis b” (priority 2019, dated 2025)
